In patent US10125358B2, “Methods and compounds for increasing threonyl-tRNA synthetase activity” (UNIVERSITY OF VERMONT AND STATE AGRICULTURAL COLLEGE, priority 2012, dated 2018):
Entries after “also recorded” stand apart in the source; their conditions may differ.

Experiments:
TARS [1] = molecular target: T1, TARS (Homo sapiens, UniProt P26639); assay: GTPase (GTP hydrolysis) assay; format: biochemical; design: His6 (N); made in house; host or cells: E. coli Rosetta 2 (DE3)pLysS, plasmid pET28a hctThrRS; conditions: for GTP hydrolysis rate: 2 mM GTP
T1 sequence (P26639 1-723): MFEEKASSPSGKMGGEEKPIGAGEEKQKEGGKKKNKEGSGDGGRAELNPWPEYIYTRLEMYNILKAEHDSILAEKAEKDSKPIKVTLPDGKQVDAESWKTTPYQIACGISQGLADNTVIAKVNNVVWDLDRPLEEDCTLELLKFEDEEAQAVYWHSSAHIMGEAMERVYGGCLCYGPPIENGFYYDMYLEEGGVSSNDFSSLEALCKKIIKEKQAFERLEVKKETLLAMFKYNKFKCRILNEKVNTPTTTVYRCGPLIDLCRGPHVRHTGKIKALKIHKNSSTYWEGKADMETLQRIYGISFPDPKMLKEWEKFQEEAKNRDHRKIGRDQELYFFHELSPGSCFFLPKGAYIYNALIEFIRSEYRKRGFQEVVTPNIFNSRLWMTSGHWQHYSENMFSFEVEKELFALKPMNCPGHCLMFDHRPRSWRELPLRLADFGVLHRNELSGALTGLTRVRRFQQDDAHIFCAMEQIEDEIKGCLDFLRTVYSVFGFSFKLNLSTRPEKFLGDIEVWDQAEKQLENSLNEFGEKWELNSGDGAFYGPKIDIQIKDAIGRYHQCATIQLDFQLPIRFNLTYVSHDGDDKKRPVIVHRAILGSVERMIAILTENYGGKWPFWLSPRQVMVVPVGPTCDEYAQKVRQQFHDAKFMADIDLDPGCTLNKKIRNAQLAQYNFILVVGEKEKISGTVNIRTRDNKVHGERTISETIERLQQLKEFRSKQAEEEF

TARS [2] = molecular target: T1, TARS; assay: Ap4G formation assay (TLC, [α-32P]-GTP); format: biochemical; design: His6 (N); made in house; host or cells: E. coli Rosetta 2 (DE3)pLysS, plasmid pET28a hctThrRS
[3] = tested on: chorioallantoic membrane (CAM) of chicken embryos; assay: Chick chorioallantoic membrane (CAM) assay; format: in vivo
Method: Chick Chorioallantoic Membrane Assay—
Fertilized chicken eggs (Sunrise Farms, Catskill, N.Y.) day 1-2 post-laying were incubated in a humidified incubator at 37° C. for 72 h. Cleaned eggs were cracked and plated in a sterile 10 cm^2 tissue culture-treated dish and incubated at 37° C. for another 7 days. On developmental day 10, 1 mm^3 sterile gelatin sponge pieces (Surgifoam®; Johnson & Johnson Wound Management, Somerville, N.J.) were placed within the outer one-third of the membrane between large vessels. […] All compounds were applied in 10 μl to the CAM every 24 h for 72 h. Images were taken using a Leica MZ6 stereomicroscope every 24 h. Compounds were scored according to a modified version of Intensity Scoring as previously described (Ribatti, Nico et al. 2006). Briefly, each experimental condition was given a blinded score from 0-5 based on the change in the extent of vessel convergence and formation in proximity to the sponge from day 0 to day 3. Total score is averaged individual experimental condition scores from at least 15 replicates.
Fertilized chicken embryos were cultured ex-ova and, starting at developmental day 10, agents were applied daily to gelfoam sponges on the CAM. Images were recorded daily over 72 h and scored blindly according to a modified version Intensity Scoring as previously described (Ribatti, Nico et al. 2006). Additional details regarding methods are provided in the Methods and Materials section of Example 1.

TARS [4] = molecular target: T1, TARS; assay: Ap4A formation assay (TLC, [α-32P]-ATP); format: biochemical; design: His6 (N); made in house; host or cells: E. coli Rosetta 2 (DE3)pLysS, plasmid pET28a hctThrRS
HUVEC = assay: Transwell migration assay; format: cell-based, human; conditions: 4 h
Method: Transwell Migration Assay—
Migration was assessed using transwell inserts (Svensson, Kucharzewska et al. 2011). […] Cultures were incubated for 4 h, fixed in 10% formalin, and stained with 10 μg/ml DAPI solution (Roche) following removal of cells from the top layer of the chamber with a cotton swab. Migrated cells were imaged using a 4× objective on the Olympus IX70 Inverted microscope (Olympus). DAPI-stained nuclei were counted using ImageJ software.

[5] = tested on: Human umbilical vein endothelial cells (HUVECs); assay: In vitro endothelial tube formation assay on Matrigel; format: cell-based
Method: In Vitro Tube Formation Assay—
Tube formation assays were performed as described (Arnaoutova and Kleinman 2010; Cassavaugh, Hale et al. 2011). Human Umbilical Vein Endothelial Cells (HUVECs) were seeded in 48-well plates (1.5×10^4 cells/well) coated with 100 μl of Matrigel™ Basement Membrane Matrix Growth Factor Reduced (BD Biosciences, San Jose, Calif.) and incubated in Clonetics® EGM®-2 complete media (Lonza, Annandale, N.J.) or EGM®-2 with reduced serum (0.2% fetal bovine serum). Cells were incubated at 37° C. for 6 h then fixed in 10% formalin. Fixed samples were imaged by phase-contrast microscopy or stained with Oregon Green 488 Phalloidin (Molecular Probes, Eugene, Oreg.) then imaged with fluorescence microscopy (2× objective). Number of tubes and tube lengths (in pixels) were quantified using the Simple Neurite Tracer (Longair, Baker et al. 2011) plug-in on ImageJ software (NIH). Statistical analysis of one-way ANOVA was performed with GraphPad Software. Multiple comparisons were performed using the Tukey Test.

HUVECs = assay: Endothelial cell proliferation assay (alamarBlue); format: cell-based, human
Method: Endothelial Cell Proliferation Assay—
The […] alamarBlue® (Invitrogen) reagent was used to assess cell proliferation (Ahmed, Gogal et al. 1994). HUVECs were seeded in a 96-well dish (1×10^3 cells/well) and grown for 48 h in EGM®-2 media. […] After 48 h, 72 h, or 96 h in culture, 10 μl/well premixed alamarBlue® (Invitrogen) was added and after 3 h at 37° C. the amount of reduced alamarBlue® was quantified by fluorescence (excitation at 530 nm, emission at 590 nm) on a microplate reader (Synergy™ HT, BioTek, Winooski, Vt.).

Q: How did the “change of TARS GTPase activity upon treatment with inhibitor” value (TARS [1]; 10 μM compound) turn out when `C[C@@H]1C[C@H](C)C[C@H](C)[C@@H](O)CC(=O)O[C@H]([C@@H]2CC[C@H]2C(=O)O)C/C=C/C=C(/C#N)[C@H](O)[C@@H](C)C1` [BC194] was run?
A: no observable change

Q: What about the “Ap4G synthesis, inhibition (qualitative)” value (TARS [2]; human TARS, 10 μM compound) of the same molecule?
A: at least partially inhibited

Q: And the “reduction of Ap4G reaction rate” value (TARS [2]; wildtype TARS, 10 μM BC194)?
A: 57%

Q: And the “CAM vessel formation, effect of inhibitor” value ([3]; BC194 10 nM applied daily, basal level and after stimulation with bFGF or VEGF)?
A: inhibited vessel formation

Q: And the “Ap4A synthesis, inhibition (qualitative)” value (TARS [4]; human TARS, 10 μM compound)?
A: at least partially inhibited

Q: And the “decrease in Ap4A formation activity” value (TARS [4]; wildtype TARS, 10 μM compound)?
A: 31.0%

Q: What about the “VEGF- and TARS-mediated migration, effect of BC194” value (HUVEC; 10 nM BC194 with 50 ng/ml VEGF or 100 nM TARS) of the same molecule?
A: reduced both the migration effects of VEGF and TARS

Q: What about the “number of branches formed by endothelial cells in tube formation assay” value ([5]; HUVECs on Matrigel, full serum media, 6 h, range of BC194 concentrations) of the same molecule?
A: sensitive to subnanomolar concentrations; also recorded: inhibits endothelial tube formation

Q: What about the “tube (branch) length” value ([5]; HUVECs, range of BC194 concentrations) of the same molecule?
A: unaffected; also recorded: does not affect

Q: What about the “concentration required to affect tube formation relative to that required to detect unfolded protein response (phospho-eIF2α) and apoptosis (cleaved caspase-3)” value ([5]; lower) of the same molecule?
A: 100 fold

Q: What about the “VEGF proliferative response, effect of BC194” value (HUVECs; HUVECs, 50 ng/ml VEGF, 10 nM BC194) of the same molecule?
A: did not significantly reduce

Q: And the proliferation (HUVECs; HUVECs, BC194 concentrations below 100 nM)?
A: unaffected

B1: TARS: N-terminal His6-tagged human threonyl-tRNA synthetase expressed and purified from E. coli; SEQ ID NO:2 (protein, listed as Homo sapiens)
chain: MFEEKASSPSGKMGGEEKPIGAGEEKQKEGGKKKNKEGSGDGGRAELNPWPEYIYTRLEMYNILKAEHDSILAEKAEKDSKPIKVTLPDGKQVDAESWKTTPYQIACGISQGLADNTVIAKVNNVVWDLDRPLEEDCTLELLKFEDEEAQAVYWHSSAHIMGEAMERVYGGCLCYGPPIENGFYYDMYLEEGGVSSNDFSSLEALCKKIIKEKQAFERLEVKKETLLAMFKYNKFKCRILNEKVNTPTTTVYRCGPLIDLCRGPHVRHTGKIKALKIHKNSSTYWEGKADMETLQRIYGISFPDPKMLKEWEKFQEEAKNRDHRKIGRDQELYFFHELSPGSCFFLPKGAYIYNALIEFIRSEYRKRGFQEVVTPNIFNSRLWMTSGHWQHYSENMFSFEVEKELFALKPMNCPGHCLMFDHRPRSWRELPLRLADFGVLHRNELSGALTGLTRVRRFQQDDAHIFCAMEQIEDEIKGCLDFLRTVYSVFGFSFKLNLSTRPEKFLGDIEVWDQAEKQLENSLNEFGEKWELNSGDGAFYGPKIDIQIKDAIGRYHQCATIQLDFQLPIRFNLTYVSHDGDDKKRPVIVHRAILGSVERMIAILTENYGGKWPFWLSPRQVMVVPVGPTCDEYAQKVRQQFHDAKFMADIDLDPGCTLNKKIRNAQLAQYNFILVVGEKEKISGTVNIRTRDNKVHGERTISETIERLQQLKEFRSKQAEEEF
modifications: N-terminal His6 tag
Q: B1 was tested. Which GTP hydrolysis rate (TARS [1]; listed as human TARS) did it give?
A: potent GTPase activities

Q: What about the GTP hydrolysis rate (TARS [1]; listed as wildtype) of the same molecule?
A: 0.3033 GDP/active site/min

Q: And the Ap4G formation rate (TARS [2]; 2 mM ATP, 2 mM threonine, 2 mM GTP)?
A: 0.1639 Ap4G/active site/min

Q: And the “sensitivity of synthetase-induced CAM angiogenesis to BC194” value ([3]; protein plus BC194 applied to CAM)?
A: sensitive to BC194

Q: And the “CAM vessel formation / vascularity, effect of applied synthetase” value ([3]; purified protein applied daily to gelfoam sponge, 72 h)?
A: stimulated vessel formation; also recorded: induces in vivo angiogenesis

Q: And the Ap4A production rate (TARS [4]; 5 μM enzyme, 2 mM threonine, 2 mM ATP)?
A: 0.1391 Ap4A/active site/min

Q: And the “migration of endothelial cells” value (HUVEC; 100 nM protein in migration compartment)?
A: significantly increased migration; also recorded: selectively induces migration

Q: And the “number of tube branches” value ([5]; 100 nM purified recombinant human TARS added to low serum (0.2% FBS) media, 6 h)?
A: significantly increased; also recorded: promotes angiogenesis

Q: What about the “cell proliferation, effect of TARS” value (HUVECs; HUVECs in low serum (0.2% FBS) media) of the same molecule?
A: did not exert a significant effect; also recorded: does not significantly affect cell proliferation
